Source: ChEMBL document CHEMBL1150631, “New chemical constituents of Euphorbia quinquecostata and absolute configuration assignment by a convenient Mosher ester procedure carried out in NMR tubes” (J Nat Prod, 2002)
In brackets after ≈: the same amount, converted by molar mass.

Assay: Inhibition of 12-O-tetradecanoylphorbol 13-acetate-induced transformation of mouse JB6 cells after 14 days by soft agar transformation assay
Format: functional, cell-based

## COc1ccc(/C=C/C=O)cc1OC [3,4-DIMETHOXY CINNAMALDEHYDE]
  IC50: 2.3 µg/mL (≈ 12 µM)
